# Measurements: paper PMC4279137 (Pharmaceutics, 2014)
# Read-outs that look alike come from different tables or passages of the source.
# Assays:
# [1] = tested on: P-gp; assay: Western blot analysis of P-gp expression in LS180 cells; format: cell-based, human; details: four days
# Method: (§1) The human colon adenocarcinoma cell line LS180 (available at ATCC, Manassas, VA, USA) was used for induction experiments as a surrogate for the intestine being a major site of drug interactions and being an ideal model for investigating PXR and AhR mediated induction. Cells were cultured as described previously. For the induction experiments, LS180 cells were seeded in 75 cm^2 culturing flasks and incubated for three days. […] Rifampicin (20 µM) served as a positive control and culture medium with 0.02% DMSO as a negative control. For induction of CYP1A1 and CYP1A2, 5 nM TCDD was used as a positive control. All incubation solutions were adjusted to 0.02% DMSO. After harvesting, cells were splitted for RNA and protein extraction.
# [2] = tested on: CYP1A2; assay: Induction assay, mRNA by real-time RT-PCR in LS180 cells: CYP1A2; format: cell-based, human
# Method: as §1, with “After harvesting, cells were splitted for RNA and protein extraction.” left out
# (§2) RNA was isolated using the RNeasy Mini-Kit and cDNA was synthesised with the RevertAid™ H Minus First Strand cDNA Synthesis Kit according to the manufacturer’s instructions. mRNA expression was quantified by real-time RT-PCR with the LightCycler® 480 (Roche Applied Science, Mannheim, Germany) as described previously. […] Data were evaluated by calibrator-normalised relative quantification with efficiency correction using the LightCycler® 480 software version 1.5 (Roche Applied Science, Mannheim, Germany). The software calculated the relative amount of the target gene and the reference gene (G6PDH) based on the crossing points. Results were expressed as the target/reference ratio divided by the target/reference ratio of the calibrator. […]
# [3] = target: T1, AhR (Homo sapiens, UniProt P35869); assay: AhR reporter gene assay in AZ-AhR cells; format: cell-based; details: 24 h, luciferase reporter, read-out: EC50 activation of AhR activity
# T1 construct: endogenous in cells; host or cells: AZ-AhR (HepG2)
# T1 sequence (P35869 11-848): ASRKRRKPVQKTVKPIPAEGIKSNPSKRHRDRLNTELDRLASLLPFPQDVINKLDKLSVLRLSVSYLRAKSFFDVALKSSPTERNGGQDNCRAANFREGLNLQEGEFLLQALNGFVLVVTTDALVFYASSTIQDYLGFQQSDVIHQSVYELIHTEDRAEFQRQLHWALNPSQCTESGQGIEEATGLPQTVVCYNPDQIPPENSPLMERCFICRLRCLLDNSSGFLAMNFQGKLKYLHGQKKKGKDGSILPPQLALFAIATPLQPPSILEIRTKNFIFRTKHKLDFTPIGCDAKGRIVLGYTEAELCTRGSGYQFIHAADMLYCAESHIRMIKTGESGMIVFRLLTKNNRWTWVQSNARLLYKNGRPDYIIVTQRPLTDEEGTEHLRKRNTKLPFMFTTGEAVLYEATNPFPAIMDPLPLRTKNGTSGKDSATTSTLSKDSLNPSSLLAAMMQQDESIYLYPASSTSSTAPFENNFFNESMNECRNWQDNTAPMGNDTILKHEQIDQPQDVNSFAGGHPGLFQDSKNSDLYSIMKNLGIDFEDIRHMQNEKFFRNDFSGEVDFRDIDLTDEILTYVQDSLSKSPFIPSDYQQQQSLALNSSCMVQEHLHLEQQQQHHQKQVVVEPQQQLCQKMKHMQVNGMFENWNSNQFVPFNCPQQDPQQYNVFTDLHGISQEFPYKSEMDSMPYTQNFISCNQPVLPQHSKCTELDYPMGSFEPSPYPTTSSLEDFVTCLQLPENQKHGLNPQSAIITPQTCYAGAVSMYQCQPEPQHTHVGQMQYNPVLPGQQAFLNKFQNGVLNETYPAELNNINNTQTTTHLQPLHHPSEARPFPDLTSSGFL
# Method: Human hepatoma HepG2 cells stably transfected with a construct containing several AhR binding sites upstream of a luciferase reporter gene were used for the AhR reporter gene assays as described previously.
# In total, 60,000 AZ-AhR cells were seeded into each well of 96-well plates with clear bottom and clear lid for luminometry. […] The assay was performed with the Steady-Glo™ Luciferase Assay System according to the manufacturer’s instructions. Drug-induced increases of AhR receptor activity were normalised to activity of non-drug treated controls set to 1 (=100%).
# [4] = tested on: CYP3A4; assay: Induction assay, mRNA by real-time RT-PCR in LS180 cells: CYP3A4; format: cell-based, human; details: 0.1-5 µM, four days
# Method: as §1, with “After harvesting, cells were splitted for RNA and protein extraction.” left out
# as §2
# [5] = target: T2, OATP1B1 (Homo sapiens, UniProt Q9Y6L6); assay: OATP inhibition assay (8-FcA flow cytometry uptake assay) in HEK-OATP1B1 cells; format: cell-based; details: 8-fluorescein-cAMP uptake
# T2 construct: expressed in transfected cells; host or cells: HEK293 (HEK-OATP1B1)
# T2 sequence (Q9Y6L6 whole entry): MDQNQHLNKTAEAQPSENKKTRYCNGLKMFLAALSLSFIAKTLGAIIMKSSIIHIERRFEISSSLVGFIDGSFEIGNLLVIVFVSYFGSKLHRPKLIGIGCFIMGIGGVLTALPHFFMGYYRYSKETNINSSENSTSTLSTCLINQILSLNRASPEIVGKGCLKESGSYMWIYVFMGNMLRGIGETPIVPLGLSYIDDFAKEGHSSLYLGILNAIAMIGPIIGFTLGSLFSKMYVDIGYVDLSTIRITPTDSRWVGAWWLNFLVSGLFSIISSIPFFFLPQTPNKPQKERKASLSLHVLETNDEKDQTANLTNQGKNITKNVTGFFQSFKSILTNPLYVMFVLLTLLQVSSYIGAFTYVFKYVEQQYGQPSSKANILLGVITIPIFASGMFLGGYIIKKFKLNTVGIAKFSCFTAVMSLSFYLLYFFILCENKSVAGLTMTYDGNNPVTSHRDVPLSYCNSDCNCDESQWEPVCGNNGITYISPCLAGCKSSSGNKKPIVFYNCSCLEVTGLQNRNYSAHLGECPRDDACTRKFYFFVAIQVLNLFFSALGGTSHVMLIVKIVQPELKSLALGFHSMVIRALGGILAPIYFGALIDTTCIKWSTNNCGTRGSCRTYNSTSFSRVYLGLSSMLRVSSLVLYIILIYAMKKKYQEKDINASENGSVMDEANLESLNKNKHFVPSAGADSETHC
# Method: (§3) For assessing human organic antion transporting polypeptides (OATPs = solute carriers of organic anions (SLCOs)) inhibition, the human embryonic kidney cell line HEK293 stably transfected with OATP1B1 (HEK-OATP1B1), OATP1B3 (HEK-OATP1B3), or the empty control vector (HEK293-VC G418) were used. Cells were cultured under standard cell culture conditions with DMEM supplemented with 10% FCS, 2 mM glutamine, 100 U/mL penicillin, 100 µg/mL streptomycin sulphate, and 800 µg/mL G418. Cells were kindly provided by Dr. D. Keppler (German Cancer Research Centre, Heidelberg, Germany).
# (§4) Inhibition of OATP1B1 and OATP1B3 was analysed by flow cytometric uptake of the fluorescent 8-FcA as described previously using HEK-OATP1B1, OATP1B3, and HEK293-VC G418 (as a control). […] Subsequently, cells were washed once with 1 mL ice-cold incubation medium and resuspended in 500 µL incubation medium and kept on ice until flow cytometry. Intracellular fluorescence was analysed in a Becton Dickinson LSRII flow cytometer (Becton Dickinson, Heidelberg, Germany) with a solid state coherent sapphire blue laser and a 530 bandpass filter for 8-FcA.
# (§5) In each sample 30,000 cells were counted. Cell debris was eliminated by gating the viable cells in the forward versus side scatter. […] Each experiment was performed at least in triplicate.
# [6] = Growth inhibition assay in MDCKII-BCRP cells; format: cell-based, canine; details: dog
# [7] = tested on: ABCG2; assay: Induction assay, mRNA by real-time RT-PCR in LS180 cells: ABCG2; format: cell-based, human; details: 0.1-5 µM, four days
# Method: as §1, with “After harvesting, cells were splitted for RNA and protein extraction.” left out
# as §2
# [8] = tested on: ABCC2; assay: Induction assay, mRNA by real-time RT-PCR in LS180 cells: ABCC2; format: cell-based, human; details: four days, at higher concentrations
# Method: as §1, with “After harvesting, cells were splitted for RNA and protein extraction.” left out
# as §2
# [9] = tested on: UGT1A3; assay: Induction assay, mRNA by real-time RT-PCR in LS180 cells: UGT1A3; format: cell-based, human; details: four days, at higher concentrations
# Method: as §1, with “After harvesting, cells were splitted for RNA and protein extraction.” left out
# as §2
# [10] = tested on: NR1I2; assay: Induction assay, mRNA by real-time RT-PCR in LS180 cells: NR1I2; format: cell-based, human; details: four days, at higher concentrations
# Method: as §1, with “After harvesting, cells were splitted for RNA and protein extraction.” left out
# as §2
# [11] = target: T3, CYP2C19 (Homo sapiens, UniProt P33261); assay: CYP2C19/CEC High Throughput Inhibitor Screening Kit; format: biochemical
# T3 construct: purchased Becton Dickinson Biosciences, Heidelberg, Germany
# T3 sequence (P33261 whole entry): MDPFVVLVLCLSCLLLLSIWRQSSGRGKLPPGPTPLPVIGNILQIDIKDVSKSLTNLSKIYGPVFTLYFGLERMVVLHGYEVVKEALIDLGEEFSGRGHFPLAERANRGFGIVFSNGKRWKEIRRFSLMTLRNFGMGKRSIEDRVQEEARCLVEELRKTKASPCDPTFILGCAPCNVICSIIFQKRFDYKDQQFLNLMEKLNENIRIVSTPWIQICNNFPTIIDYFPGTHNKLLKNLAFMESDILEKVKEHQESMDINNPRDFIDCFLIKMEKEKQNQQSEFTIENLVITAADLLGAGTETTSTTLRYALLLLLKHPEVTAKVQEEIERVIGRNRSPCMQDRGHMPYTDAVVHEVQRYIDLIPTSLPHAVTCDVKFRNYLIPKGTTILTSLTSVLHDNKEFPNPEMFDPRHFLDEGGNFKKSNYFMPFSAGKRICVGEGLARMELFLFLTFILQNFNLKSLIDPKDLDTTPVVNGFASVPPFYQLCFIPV
# Method: (§6) Inhibition studies were performed with the CYP2D6/AMMC, the CYP2C19/CEC, and the CYP3A4/BFC High Throughput Inhibitor Screening Kit (Becton Dickinson Biosciences, Heidelberg, Germany) according to the manufacturer’s instructions. The Screening Kits contain the respective recombinant CYP and fluorogenic substrates, which are blocked dyes yielding minimal fluorescence signal until cleaved by the enzyme. […] Eight concentrations (9 nM–20 µM) were tested and the experiment was conducted in triplicate.
# [12] = tested on: CYP2C19; assay: Induction assay, mRNA by real-time RT-PCR in LS180 cells: CYP2C19; format: cell-based, human; details: 0.1-5 µM, four days
# Method: as §1, with “After harvesting, cells were splitted for RNA and protein extraction.” left out
# as §2
# [13] = tested on: ABCC3; assay: Induction assay, mRNA by real-time RT-PCR in LS180 cells: ABCC3; format: cell-based, human; details: 0.1-5 µM, four days
# Method: as §1, with “After harvesting, cells were splitted for RNA and protein extraction.” left out
# as §2
# [14] = target: T4, OATP1B3 (Homo sapiens, UniProt Q9NPD5); assay: OATP inhibition assay (8-FcA flow cytometry uptake assay) in HEK-OATP1B3 cells; format: cell-based; details: 8-fluorescein-cAMP uptake
# T4 construct: expressed in transfected cells; host or cells: HEK293 (HEK-OATP1B3)
# T4 sequence (Q9NPD5 whole entry): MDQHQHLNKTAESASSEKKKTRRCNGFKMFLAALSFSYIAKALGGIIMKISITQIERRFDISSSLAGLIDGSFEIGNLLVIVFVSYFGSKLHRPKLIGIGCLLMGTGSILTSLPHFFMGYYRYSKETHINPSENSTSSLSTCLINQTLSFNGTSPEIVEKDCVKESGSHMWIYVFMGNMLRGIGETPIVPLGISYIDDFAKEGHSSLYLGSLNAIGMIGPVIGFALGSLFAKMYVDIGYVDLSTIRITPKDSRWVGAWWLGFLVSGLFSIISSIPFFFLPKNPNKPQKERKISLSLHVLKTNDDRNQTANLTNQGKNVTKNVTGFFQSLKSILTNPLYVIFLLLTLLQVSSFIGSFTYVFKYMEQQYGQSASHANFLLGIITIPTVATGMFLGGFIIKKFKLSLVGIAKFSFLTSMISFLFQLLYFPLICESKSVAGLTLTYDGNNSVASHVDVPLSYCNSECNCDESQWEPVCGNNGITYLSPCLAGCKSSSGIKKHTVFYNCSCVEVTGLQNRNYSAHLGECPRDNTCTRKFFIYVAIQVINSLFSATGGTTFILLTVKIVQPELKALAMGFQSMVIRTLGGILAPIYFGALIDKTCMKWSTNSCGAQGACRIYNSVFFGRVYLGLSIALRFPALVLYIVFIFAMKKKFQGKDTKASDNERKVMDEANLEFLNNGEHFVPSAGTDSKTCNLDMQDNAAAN
# Method: as §3, §4, §5
# [15] = tested on: SLCO1B1; assay: Induction assay, mRNA by real-time RT-PCR in LS180 cells: SLCO1B1; format: cell-based, human; details: four days, at higher concentrations
# Method: as §1, with “After harvesting, cells were splitted for RNA and protein extraction.” left out
# as §2
# [16] = Stock solution in DMSO (highest possible solution); format: physicochemical
# [17] = tested on: MDCKII; assay: Growth inhibition assay in MDCKII cells; format: cell-based, canine; details: Canis lupus familiaris, MDCK-II; MDCKII parental cells
# [18] = tested on: LS180 cells; assay: Growth inhibition assay (crystal violet staining) in LS180 cells; format: cell-based; details: Homo sapiens, 48 h, read-out: IC20 for proliferation inhibition
# Method: The human colon adenocarcinoma cell line LS180 (available at ATCC, Manassas, VA, USA) was used for induction experiments as a surrogate for the intestine being a major site of drug interactions and being an ideal model for investigating pregnane X receptor (PXR) and aryl hydrocarbon receptor (AhR) mediated induction. Cells were cultured under standard cell culture conditions with Dulbecco’s Modified Eagle’s Medium (DMEM) supplemented with 10% fetal calf serum, 2 mM glutamine, 100 U/mL penicillin, 100 µg/mL streptomycin sulphate, and 0.1 mM nonessential amino acids.
# Growth inhibition assays in LS180 cells were conducted to determine suitable maximum concentrations for the induction assay without profound antiproliferative effects. Proliferation was quantified by crystal violet staining as described previously. […] Absorption was measured at 555 nm excitation. Proliferation was expressed as proliferation index, which was calculated as the absorption intensity of the test well in percentage points relative to zero proliferation (absorption of wells containing only medium set to 0%) and native proliferation (absorption intensity of untreated control cells set to 100%). […] Concentration-response curves and IC20 values were calculated by GraphPad Prism version 5.02 (GraphPad Software Inc., La Jolla, CA, USA) according to a sigmoid Emax model.
# [19] = tested on: ABCC1; assay: Induction assay, mRNA by real-time RT-PCR in LS180 cells: ABCC1; format: cell-based, human; details: 0.1-5 µM, four days
# Method: as §1, with “After harvesting, cells were splitted for RNA and protein extraction.” left out
# as §2
# [20] = tested on: CYP1A1; assay: Induction assay, mRNA by real-time RT-PCR in LS180 cells: CYP1A1; format: cell-based, human
# Method: as §1, with “After harvesting, cells were splitted for RNA and protein extraction.” left out
# as §2
# [21] = target: CYP3A4 (Homo sapiens, UniProt P08684); assay: in vitro
# Sequence of CYP3A4 (Homo sapiens, UniProt P08684) (P08684 whole entry): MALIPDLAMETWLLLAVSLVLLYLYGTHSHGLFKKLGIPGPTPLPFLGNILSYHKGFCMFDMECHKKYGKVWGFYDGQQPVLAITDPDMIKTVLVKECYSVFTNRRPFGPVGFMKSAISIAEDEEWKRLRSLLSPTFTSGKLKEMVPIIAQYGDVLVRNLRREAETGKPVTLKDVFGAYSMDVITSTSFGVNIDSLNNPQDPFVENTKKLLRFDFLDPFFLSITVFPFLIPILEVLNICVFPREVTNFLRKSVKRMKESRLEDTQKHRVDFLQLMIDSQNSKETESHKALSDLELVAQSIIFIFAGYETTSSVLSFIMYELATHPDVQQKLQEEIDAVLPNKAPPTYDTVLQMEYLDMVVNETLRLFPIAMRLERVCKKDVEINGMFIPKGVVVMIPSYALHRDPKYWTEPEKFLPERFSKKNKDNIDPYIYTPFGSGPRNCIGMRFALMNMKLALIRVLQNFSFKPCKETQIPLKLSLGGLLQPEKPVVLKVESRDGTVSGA
# Method: as §6
# [22] = target: T5, CYP2D6 (Homo sapiens, UniProt P10635); assay: CYP2D6/AMMC High Throughput Inhibitor Screening Kit; format: biochemical; details: tested up to 20 µM
# T5 construct: purchased Becton Dickinson Biosciences, Heidelberg, Germany
# T5 sequence (P10635 whole entry): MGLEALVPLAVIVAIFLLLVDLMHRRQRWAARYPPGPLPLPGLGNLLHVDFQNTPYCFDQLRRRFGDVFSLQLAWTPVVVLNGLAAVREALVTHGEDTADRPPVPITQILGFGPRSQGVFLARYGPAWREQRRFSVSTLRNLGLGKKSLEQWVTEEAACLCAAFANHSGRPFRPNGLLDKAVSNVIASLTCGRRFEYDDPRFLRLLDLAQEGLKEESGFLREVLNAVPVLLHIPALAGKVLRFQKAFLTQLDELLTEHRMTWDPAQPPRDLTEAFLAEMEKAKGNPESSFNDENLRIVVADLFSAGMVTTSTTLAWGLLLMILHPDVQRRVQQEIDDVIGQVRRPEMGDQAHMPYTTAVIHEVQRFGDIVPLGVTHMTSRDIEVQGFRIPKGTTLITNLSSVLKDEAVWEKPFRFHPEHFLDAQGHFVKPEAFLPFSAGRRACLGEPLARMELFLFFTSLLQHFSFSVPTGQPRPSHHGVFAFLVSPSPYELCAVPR
# Method: as §6
# [23] = Growth inhibition assay in MDCKII-MDR1 cells; format: cell-based, canine; details: dog
# [24] = tested on: UGT2B7; assay: Induction assay, mRNA by real-time RT-PCR in LS180 cells: UGT2B7; format: cell-based, human; details: four days, at higher concentrations
# Method: as §1, with “After harvesting, cells were splitted for RNA and protein extraction.” left out
# as §2
# [25] = tested on: SLCO2B1; assay: Induction assay, mRNA by real-time RT-PCR in LS180 cells: SLCO2B1; format: cell-based, human; details: four days, at higher concentrations
# Method: as §1, with “After harvesting, cells were splitted for RNA and protein extraction.” left out
# as §2
# [26] = tested on: ABCB1; assay: Induction assay, mRNA by real-time RT-PCR in LS180 cells: ABCB1; format: cell-based, human; details: four days, at higher concentrations
# Method: as §1, with “After harvesting, cells were splitted for RNA and protein extraction.” left out
# as §2
# [27] = target: T6, BCRP (Homo sapiens, UniProt Q9UNQ0); design: method as in PMID 20222053; details: MDCKII-BCRP cells; read-out: IC50 BCRP inhibition, control compound; cited from earlier work
# T6 construct: expressed in transfected cells; host or cells: MDCKII-BCRP (Madin-Darby canine kidney cells)
# T6 sequence (Q9UNQ0 whole entry): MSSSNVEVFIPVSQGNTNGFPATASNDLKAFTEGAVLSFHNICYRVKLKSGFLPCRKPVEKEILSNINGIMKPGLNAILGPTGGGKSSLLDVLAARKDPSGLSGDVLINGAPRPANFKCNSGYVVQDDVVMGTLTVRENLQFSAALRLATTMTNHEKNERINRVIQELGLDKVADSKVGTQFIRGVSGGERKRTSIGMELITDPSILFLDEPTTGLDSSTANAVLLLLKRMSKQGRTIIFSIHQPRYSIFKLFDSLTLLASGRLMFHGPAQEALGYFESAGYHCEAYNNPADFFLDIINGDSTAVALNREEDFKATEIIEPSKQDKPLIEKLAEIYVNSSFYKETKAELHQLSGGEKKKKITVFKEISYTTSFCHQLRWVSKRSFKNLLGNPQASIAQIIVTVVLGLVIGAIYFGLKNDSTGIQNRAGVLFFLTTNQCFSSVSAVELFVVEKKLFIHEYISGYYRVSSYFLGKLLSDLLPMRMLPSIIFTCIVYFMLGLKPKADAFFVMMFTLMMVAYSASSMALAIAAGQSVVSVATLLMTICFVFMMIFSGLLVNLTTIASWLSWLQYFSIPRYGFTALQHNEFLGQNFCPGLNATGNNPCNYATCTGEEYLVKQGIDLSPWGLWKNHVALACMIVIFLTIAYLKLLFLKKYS
# [28] = target: T2, OATP1B1; design: method as in PMID 23219525; details: HEK-OATP1B1 cells; read-out: IC50 OATP1B1 inhibition, control compound; cited from earlier work
# [29] = target: T4, OATP1B3; design: method as in PMID 23219525; details: HEK-OATP1B3 cells; read-out: IC50 OATP1B3 inhibition, control compound; cited from earlier work
smiles,measurement,setting,value
CN1CCN(c2ccc3nc(-c4c(N)c5c(F)cccc5[nH]c4=O)[nH]c3c2)CC1 [Dovitinib],P-gp protein expression (western blot),[1]; at 0.1 and 0.5 µM,small increase in P-gp expression
same,P-gp protein expression (western blot),[1]; at higher dovitinib concentrations,suppression of P-gp protein expression
same,mRNA expression of CYP1A2,"[2]; 0.1-5 µM, four days",induced
same,induction of CYP1A2 (mRNA),[2]; Figure 3,approximately 10 fold
same,EC50,[3],0.609 ± 0.282 µM
same,mRNA expression of CYP3A4,[4],no influence
same,IC50,[5],76.5 ± 28.9 µM
same,IC50 at 48 h,[6],21.4 ± 3.6 µM
same,mRNA expression of ABCG2,[7],induced
same,mRNA expression of ABCC2,[8],reduced
same,mRNA expression of UGT1A3,[9],reduced
same,mRNA expression of NR1I2,[10],reduced
same,inhibition at 20 µM,"[11]; human, recombinant CYP2C19, probe CEC, at 20 µM",~50%
same,mRNA expression of CYP2C19,[12],no influence
same,mRNA expression of ABCC3,[13],induced
same,IC50,[14],> 100 µM
same,mRNA expression of SLCO1B1,[15],reduced
same,"stock solution, highest possible solution",[16],10 mM
same,IC50,[17],20 ± 2.9 µM
same,IC20,[18],4.9 ± 2.5 µM
same,mRNA expression of ABCC1,[19],no influence
same,mRNA expression of CYP1A1,"[20]; 0.1-5 µM, four days",induced
same,induction of CYP1A1 (mRNA),[20]; Figure 3,approximately 10 fold
same,inhibition at 20 µM,[21],~30%
same,CYP2D6 inhibition,[22],not inhibited at all
same,IC50 at 48 h,[23],18.3 ± 4.1 µM
same,mRNA expression of UGT2B7,[24],reduced
same,mRNA expression of SLCO2B1,[25],reduced
same,mRNA expression of ABCB1,[26],reduced
COc1ccc2c3c([nH]c2c1)[C@H](C=C(C)C)N1C(=O)[C@@H]2CCCN2C(=O)[C@@H]1C3 [Fumitremorgin C],IC50,[27],0.7 ± 0.3 µM
"COc1ccc2[nH]c([S+]([O-])Cc3ncc(C)c(OC)c3C)nc2c1 (stereo not drawn) [omeprazole, Omeprazole]",IC50,"[11]; control compound, read-out: IC50 CYP2C19 inhibition",0.8 ± 0.2 µM
CO[C@H]1/C=C/O[C@@]2(C)Oc3c(C)c(O)c4c(O)c(c(/C=N/N5CCN(C)CC5)c(O)c4c3C2=O)NC(=O)/C(C)=C\C=C\[C@H](C)[C@H](O)[C@@H](C)[C@@H](O)[C@@H](C)[C@H](OC(C)=O)[C@@H]1C [Rifampicin],IC50,[28],2.4 ± 0.9 µM
same,IC50,[29],2.1 ± 1 µM
